In brackets after ≈: the same amount, converted by molar mass. Inconclusive results are not listed. Activity calls are given as the source filed them. No rule for the calls is given here.

The IC50 is the concentration needed to halve the response being measured.

The test deals with M. tuberculosis H37Rv growth inhibition. Nature of the test: Confirmatory growth inhibition assay against Mycobacterium tuberculosis H37Rv, potency (AID 1949).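 Also: bacteria grown 7 days with compound before Alamar blue readout.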

`O=C(CN1CCN(Cc2ccccc2)CC1)Nc1ccc([N+](=O)[O-])cc1C(=O)c1ccccc1`: the IC50 is 2.78 µg/mL (≈ 6.06 µM). With `COc1cc2c(cc1OC)C(c1ccc(-c3ccc(Cl)c(Cl)c3)o1)=NCC2` the figure was 6.98 µg/mL (≈ 17.4 µM); with `CCCC(=O)N1CCN(c2ccc(NC(=O)COc3ccc(C(C)CC)cc3)cc2Cl)CC1` (stereo not drawn), 11.3 µg/mL (≈ 24 µM); with `O=[N+]([O-])c1ccc(-c2[nH]c(-c3cccs3)nc2-c2ccccc2)cc1`, 2.86 µg/mL (≈ 8.23 µM). Next, `N#Cc1ccc(NC(=O)CSc2ccc(Cl)cc2)cc1`: 2.94 µg/mL (≈ 9.71 µM); `CC(C)(C)c1ccc(-c2noc(-c3cccnc3)n2)cc1`: 4.34 µg/mL (≈ 15.5 µM); `COCCNc1nc(-c2ccc(Cl)cc2)nc2ccccc12`: > 50 µg/mL (inactive).

For `CCOC(=O)COc1ccc(-c2ccc(C)cc2)cc1`, the IC50 was 0.33 µg/mL (≈ 1.22 µM). With `COC(=O)COc1ccc(NC(=O)c2ccccc2F)cc1` the figure was 0.65 µg/mL (≈ 2.14 µM). Next, `Cc1ccc(S(=O)(=O)c2nc(S(=O)(=O)Cc3ccc([N+](=O)[O-])cc3)sc2Cl)cc1`: 1.04 µg/mL (≈ 2.2 µM); `COc1ccc(CCNC(=S)N2CCN(C/C=C/c3ccccc3)CC2)cc1OC`: 1.73 µg/mL (≈ 4.06 µM). With `Cc1ccccc1NC(=O)c1cc(Cl)ccc1O` the figure was 2.6 µg/mL (≈ 9.93 µM). `O=[N+]([O-])c1ccc(N2CCN(CCO)CC2)cc1NCCOc1cccc2ccccc12`: the IC50 is 2.82 µg/mL (≈ 6.46 µM).

Consider `O=C(Oc1ccccc1)c1cccc2cccnc12`, for which the IC50 is 0.99 µg/mL (≈ 3.97 µM). With `O=Cc1ccc(Sc2nnc(-c3ccccc3)o2)o1`, the IC50 was 3.39 µg/mL (≈ 12.5 µM).

For the compound `Cc1ccc2nc(-c3ccncc3)cc(C(=O)Nc3ccncc3)c2c1`, the IC50 is > 50 µg/mL (inactive). Next, `O=C1NC(=O)N(c2ccc(Cl)cc2)C(=O)/C1=C\c1ccc([N+](=O)[O-])s1`: 5.58 µg/mL (≈ 14.8 µM); `CN(C)CCSc1nc(-c2cccs2)cc(-c2ccc(F)cc2)c1C#N`: 5.23 µg/mL (≈ 13.6 µM). Next, `CC(=O)Oc1cc(C)cc2oc(=O)c3c(c12)CCCC3`: 3.85 µg/mL (≈ 14.1 µM); `CCOC(=O)c1c(-c2ccccc2)oc2ccc(O)c(CN3CCCC3)c12`: 3.37 µg/mL (≈ 9.22 µM); `COc1ccccc1-n1c(=O)oc2ccc(Cl)cc2c1=O`: 4.95 µg/mL (≈ 16.3 µM). Turning to `CN1CCN(c2cc(-c3ccccc3)nc3c(C(F)(F)F)cccc23)CC1`, the IC50 was 1.88 µg/mL (≈ 5.06 µM).

Turning to `O=C(NNC(=S)NCc1ccc(F)cc1)c1ccncc1`, the 50% inhibitory concentration (IC50) was 5.78 µg/mL (≈ 19 µM). Next, `O=[N+]([O-])c1ccc(NCCNc2nc3ccccc3nc2N2CCOCC2)cc1`: 1.64 µg/mL (≈ 4.16 µM); `Cc1ccc(N2C(=O)CC(Sc3ccccc3C(=O)Nc3ccccc3)C2=O)cc1` (stereo not drawn): 4.92 µg/mL (≈ 11.8 µM). Next, `Cc1ccc(Oc2nc(-c3cccnc3)nc3ccccc23)cc1C`: 15.8 µg/mL (≈ 48.4 µM); `CCCN1C(=O)c2cccc3cc([N+](=O)[O-])cc(c23)C1=O`: below 0.1 µg/mL; `Cc1nn2c3ccc(N)cc3nc2c2ccccc12`: 17.5 µg/mL (≈ 70.6 µM). With `Clc1ccc(-c2nnc(SCc3ccon3)o2)c(Cl)c1` the figure was 0.79 µg/mL (≈ 2.41 µM).

For the compound `COc1ccc(Nc2sc(C(=O)C34CC5CC(CC(C5)C3)C4)c(N)c2C#N)cc1`, the IC50 was 12.1 µg/mL (≈ 29.6 µM). Next, `CC(C)(C)c1ccc(C(=O)Nc2nc3ccccc3[nH]2)cc1`: below 0.1 µg/mL. Next, `Cc1ccc(C(=O)Nc2nc(-c3ccccc3)c(-c3ccccc3)o2)cc1`: below 0.1 µg/mL. With `O=C(CC(O)(C(F)(F)F)C(F)(F)F)Nc1ccc(Oc2ccccc2)cc1`, the IC50 was 7.49 µg/mL (≈ 19 µM). Next, `COC(=O)CSc1nnc(NC(=O)c2ccc(Cl)cc2)s1`: 0.16 µg/mL (≈ 0.465 µM); `COc1ccc(CC(=O)Nc2ccc(-c3nc4ccccc4c(=O)o3)cc2)cc1`: 15.1 µg/mL (≈ 39 µM); `Cc1ccc(Cl)cc1N1CCN(CC(O)COc2ccc(C(=O)c3ccccc3)cc2)CC1` (stereo not drawn): 2.94 µg/mL (≈ 6.32 µM).

Turning to `O=C(Oc1c(Cl)cc(Cl)c2cccnc12)c1ccc([N+](=O)[O-])cc1`, the half-maximal inhibitory concentration (IC50) was 0.88 µg/mL (≈ 2.42 µM). Next, `Cc1ccc(N2CCN(CCNC(=S)Nc3cccc(C)c3C)CC2)c(Cl)c1`: 8.3 µg/mL (≈ 19.9 µM); `CC(Nc1nc(N2CCCCC2)nc2ccccc12)c1ccccc1` (stereo not drawn): 2.29 µg/mL (≈ 6.89 µM); `CCn1c(/C=C/c2ccc(F)cc2)nc2ccccc21`: 8.17 µg/mL (≈ 30.7 µM).

On to `CC(=O)Oc1ccc2nc(-c3ccc(C)c(C)c3)oc(=O)c2c1`, for which the IC50 was > 50 µg/mL (inactive). `CCOC(=O)C1=C(C)N(c2ccc(Br)cc2)C(=O)C1`: the IC50 was 3.23 µg/mL (≈ 9.96 µM). Next, `Clc1ccc(OCCCCn2ccnc2)c(Br)c1`: 1.51 µg/mL (≈ 4.58 µM); `COc1ccc(-c2cc(-c3ccccc3)nc(-n3nc(C)cc3C)n2)cc1`: 4.22 µg/mL (≈ 11.8 µM); `CCC(=O)N1CCN(c2ccc(Cl)cc2NC(=O)CC23CC4CC(CC(C4)C2)C3)CC1`: 6.98 µg/mL (≈ 15.7 µM). Turning to `Clc1ccc(CN2CCN(c3ncnc4scc(-c5cccs5)c34)CC2)cc1`, the IC50 was 20.5 µg/mL (≈ 48.1 µM). Next, `Cc1ccc(O)c(C2=NNC(c3ccc(Cl)cc3)C2)c1` (stereo not drawn): 4.76 µg/mL (≈ 16.6 µM). With `Oc1ccc(Br)cc1C1=NNC(c2ccc(F)cc2)C1` (stereo not drawn), the IC50 was 2.89 µg/mL (≈ 8.62 µM). As for `CCn1c(-c2ccco2)nc2ccccc21`, the IC50 was 2.39 µg/mL (≈ 11.3 µM). As for `CC1(C)Cc2c(sc3nc(SCC(=O)Nc4ccc(Br)cc4)nc(N)c23)CS1`, the IC50 is 6.22 µg/mL (≈ 12.6 µM). As for `COc1ccc(Cn2c(=O)c3c(n4cnnc24)-c2ccccc2CC32CCCCC2)cc1`, the IC50 is 2.84 µg/mL (≈ 6.66 µM). Next, `Cc1ccc(Cl)cc1N1CCN(CC(O)COc2ccc3ccccc3c2)CC1` (stereo not drawn): 4.13 µg/mL (≈ 10.1 µM); `CCc1ccc(Oc2coc3cc(OC(C)C(=O)OC)ccc3c2=O)cc1` (stereo not drawn): 3.05 µg/mL (≈ 8.28 µM); `N#Cc1ccccc1-c1ccc(/C=C/[N+](=O)[O-])o1`: > 50 µg/mL (inactive). With `COc1ccc(N2CCN(CC(O)COc3ccc(C)cc3C(C)(C)C)CC2)cc1` (stereo not drawn) the figure was 4.09 µg/mL (≈ 9.91 µM); with `CCCCSc1ccc(NCCC(=O)c2ccco2)cc1`, 0.42 µg/mL (≈ 1.38 µM).

For `Cc1ccc(-c2csc(Nc3ccc(C(=O)O)c(O)c3)n2)cc1`, the IC50 is 1.46 µg/mL (≈ 4.47 µM). With `Cc1ccc(SC(C)C(=O)Nc2ccc(Cl)c(Cl)c2)cc1` (stereo not drawn) the figure was 12.3 µg/mL (≈ 36.1 µM). Next, `OC(COc1ccc2ccccc2c1Br)Cn1ccnc1` (stereo not drawn): 5.39 µg/mL (≈ 15.5 µM); `CCCOC(=O)c1ccc(NC(=S)NC(=O)c2ccc(Cl)cc2)cc1`: 0.8 µg/mL (≈ 2.12 µM); `Cc1cc(OC(=O)C2CC2)c2c3c(c(=O)oc2c1)CCCC3`: 1.44 µg/mL (≈ 4.83 µM).

`COC(=O)CSc1nc(N2CCCCC2)c2c(c1C#N)CCCC2`: the IC50 was 0.17 µg/mL (≈ 0.492 µM).

For `O=C(Oc1ccc(Cl)cc1)c1sc2ccccc2c1Cl`, the IC50 was 24.2 µg/mL (≈ 74.9 µM). In the case of `O=C(Nc1ccc(-c2nc3ccccc3c(=O)o2)cc1)C1CCCCC1`, the IC50 was 23.9 µg/mL (≈ 68.7 µM). Next, `Cc1cc(C)nc(/N=C(\N)Nc2cc(Cl)ccc2Oc2ccccc2)n1`: 2.21 µg/mL (≈ 6.01 µM); `CSc1ccccc1NC(=O)c1ccc(Cl)s1`: 5.6 µg/mL (≈ 19.7 µM); `Cc1ccc([N+](=O)[O-])cc1NC(=O)c1cc(Cl)ccc1O`: 29.7 µg/mL (≈ 96.8 µM). Next, `COc1cccc2c(C)nc(Nc3nc4ccccc4c(=O)[nH]3)nc12`: > 50 µg/mL (inactive); `Cc1csc(NC(=O)CSc2ccc(Br)cc2)n1`: 5.62 µg/mL (≈ 16.4 µM); `CCOC(=O)COc1ccc(OCc2ccccc2)cc1`: 1.21 µg/mL (≈ 4.23 µM).

Turning to `CCOC(=O)CSc1nc(C#N)c(SCC(=O)OCC)s1`, the IC50 was 2.29 µg/mL (≈ 6.61 µM). Next, `COc1ccc(CCNC(=S)NC23CC4CC(CC(C4)C2)C3)cc1`: 7.85 µg/mL (≈ 22.8 µM); `CC(NC(=O)Nc1ccccc1O)(C(F)(F)F)C(F)(F)F`: 11.2 µg/mL (≈ 35.5 µM); `CN(C)c1ccc(Nc2nc(-c3ccc(O)cc3O)cs2)cc1`: 1.54 µg/mL (≈ 4.7 µM). Turning to `OC(COc1ccccc1Cl)CN1CCN(C(c2ccccc2)c2ccccc2)CC1` (stereo not drawn), the IC50 was 2.51 µg/mL (≈ 5.74 µM). Next, `CN(CCOCCOc1ccc(I)cc1)Cc1ccccc1`: 6.75 µg/mL (≈ 16.4 µM); `CC1=NN(C(=O)c2ccccc2)C(O)(c2ccncc2)C1` (stereo not drawn): below 0.1 µg/mL. In the case of `C/C(=N/N=C1\NC(=O)C(Cc2ccc(F)cc2)S1)c1ccc(Cl)cc1` (stereo not drawn), the 50% inhibitory concentration (IC50) was 1.48 µg/mL (≈ 3.94 µM). Next, `CCOc1ccccc1NC(=O)CSc1nc2ccc(NC(=O)c3ccccc3Cl)cc2s1`: 1.25 µg/mL (≈ 2.51 µM). With `CCc1ccccc1-n1c(=O)oc2ccc(Cl)cc2c1=O` the figure was 1.37 µg/mL (≈ 4.54 µM); with `CCCC1(O)CC(c2ccc(Cl)cc2)NC(c2ccc(Cl)cc2)C1C` (stereo not drawn), 2.34 µg/mL (≈ 6.18 µM); with `Oc1cccc2ccc(/C=C/c3cccc(F)c3)nc12`, 0.13 µg/mL (≈ 0.49 µM). Next, `Cc1ccc(C2=CC(c3cccc([N+](=O)[O-])c3)n3nnnc3N2)cc1C` (stereo not drawn): 12.2 µg/mL (≈ 35 µM).

`O=C(CSc1ccc(Br)cc1)Nc1ccccc1F`: the IC50 was 1.6 µg/mL (≈ 4.7 µM). As for `Cc1ccc(Cl)cc1N1CCN(C(=O)CC23CC4CC(CC(C4)C2)C3)CC1`, the IC50 was 4.43 µg/mL (≈ 11.4 µM). Next, `CCOC(=O)COc1ccc(S(=O)(=O)Nc2c(C)cccc2CC)cc1`: 0.33 µg/mL (≈ 0.874 µM); `CSc1ccc(/C=C/c2nc(-c3ccccc3O)n[nH]2)cc1`: 4.5 µg/mL (≈ 14.5 µM); `Cc1cc(C)cc(NC(=O)COc2cccc(C=O)c2)c1`: 3.3 µg/mL (≈ 11.6 µM).

`Cc1cc(C)nc(/N=C(\N)Nc2ccc(OCc3ccc(Cl)cc3)cc2)n1`: the IC50 is 34.4 µg/mL (≈ 90.2 µM). With `Cn1nc([N+](=O)[O-])nc1Sc1nnc(-c2cccnc2)o1` the figure was 2.49 µg/mL (≈ 8.16 µM).

Consider `O=S1(=O)C=C(Sc2nnc(-c3ccncc3)o2)c2ccccc21`, for which the IC50 is 1.33 µg/mL (≈ 3.87 µM). Next, `Cc1ccc(-c2csc(-c3ccncc3)n2)cc1C`: 1.85 µg/mL (≈ 6.95 µM). Next, `CCc1nc2sc(C(=O)c3ccccc3)c(N)c2cc1C`: > 50 µg/mL (inactive). With `Cc1ccn2c(-c3csc(Nc4ccccn4)n3)c(C)nc2c1` the figure was 0.24 µg/mL (≈ 0.747 µM); with `CCN(CC)c1ccc(NC(=S)NCCc2ccc(OC)c(OC)c2)cc1`, 1.68 µg/mL (≈ 4.33 µM). For `Cc1cc(Cl)ccc1NC(=O)CCc1ccc(S(=O)(=O)NCC(C)C)cc1`, the IC50 was 0.53 µg/mL (≈ 1.3 µM).

Consider `CCOc1ccc(Nc2cc(C)nc3ccc(C(=O)OC)cc23)cc1`, for which the concentration for half-maximal inhibition (IC50) was 3.71 µg/mL (≈ 11 µM). Regarding `CCCCNCCOc1ccc2ccccc2c1Br`, the IC50 is 7.65 µg/mL (≈ 23.7 µM). Next, `Cc1ccc(OCCN2CCN(c3nc(NCc4ccco4)c4ccccc4n3)CC2)cc1`: 6.3 µg/mL (≈ 14.2 µM); `O=C(NC(=S)N1CCCCCC1)c1ccc([N+](=O)[O-])cc1`: 1.42 µg/mL (≈ 4.62 µM). For `CCOC(=O)COc1ccc2c(=O)c(-c3ccccc3F)coc2c1C`, the IC50 was below 0.1 µg/mL. With `Cc1ccc(NC(=O)c2cc([N+](=O)[O-])ccc2O)cc1` the figure was 14.3 µg/mL (≈ 52.4 µM); with `COC(=O)c1ccc(NC(=O)COc2ccc(-c3ccc(C#N)cc3)cc2)cc1`, 0.41 µg/mL (≈ 1.06 µM).
